Measured values as given in patent US12697328B2, “Methods for treating metastasis with cathepsin C inhibitors” (Shanghai Institute of Nutrition and Health, Chinese Academy …, priority 2020, dated 2026).

T1: membrane-bound PR3 (Homo sapiens, UniProt P24158)
T1 construct: endogenous in cells; host or cells: human peripheral-blood neutrophils (whole-cell suspension)
T1 sequence (P24158 28-248): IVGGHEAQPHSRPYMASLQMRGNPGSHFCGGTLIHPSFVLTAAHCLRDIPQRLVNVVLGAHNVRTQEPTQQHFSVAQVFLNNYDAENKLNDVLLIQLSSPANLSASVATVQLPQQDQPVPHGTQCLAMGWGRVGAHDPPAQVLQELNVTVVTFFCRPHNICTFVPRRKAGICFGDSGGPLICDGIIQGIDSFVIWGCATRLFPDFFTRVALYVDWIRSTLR

B1: rhPR3: recombinant human active PR3 (protein, UniProt P24158 28-248, looked up)
Myeloblastin: T1 sequence (P24158 28-248)

Experiments:
Assay type in all cases: cell-based
IL-1β = IL-1β secretion of neutrophils pre-treated with CM of SCP28 cancer cells (ELISA); conditions: human neutrophils pre-treated with CM of SCP28 with CTSC overexpressed; FIG. 7H
Experimental: ELISA kits were used to assay the levels of human IL-1β (88-7621-88, ThermoFisher), mouse IL-1β (432604, Biolegend), mouse IL6 (88-7064-88, ThermoFisher), mouse CCL3 (88-56013-88, ThermoFisher) in cell culture supernatants or sera according to the manufacturer's instruction. Briefly, 96-well MaxiSorp™ ELISA Plates (44-2404, ThermoFisher) was coated with capture antibody overnight at 4° C. in coating buffer (15 mM of Na2CO3, 35 mM of NaHCO3, at pH 9.6). After three washes in PBS, the wells were blocked with 5% BSA in PBS for 45 min at room temperature. Then, 100 μl of cell culture supernatants or sera and standard samples were added into the wells and incubated for 2 h at room temperature, and the plates were washed three times with washing buffer (1% BSA, 0.05% Tween-20 in PBS). Next, biotin-conjugated detection antibody in 2.5% BSA was added into the wells and incubated for 2 h at room temperature. After three washes with washing buffer, HRP-streptavidin was incubated for 45 min at room temperature. Then, signals were detected using TMB solution and read at 450 nm.

membrane-bound PR3 = target: T1, membrane-bound PR3; assay: Membrane-bound PR3 activity of neutrophils cultured with CM of SCP28 cells overexpressing CTSC; conditions: Sivelestat 10 μM, Alvelestat 10 μM, CTSGi 20 μM, FIG. 7D
Experimental: The procedure of enzyme activity assays were conducted as previously reported (Korkmaz et aL, “Neutrophil proteinase 3 and dipeptidyl peptidase I (cathepsin C) as pharmacological targets in granulomatosis with polyangiitis (Wegener granulomatosis),” Semin. Immunopathol. 35:411-421 (2008)). The PR3 or NE enzymatic activity was quantified by detecting the rate of hydrolysis of the PR3-specific substrate (Abz)-VADnorVADRQ-(EDDnp) or NE specific substrate (Abz)-APEEIMRRQ-(EDDnp) by cell suspension or free enzymes. To analyze membrane-bound PR3 activity, neutrophils were cultured in cancer cell CM or non-conditioned medium, and treated with DMSO or various inhibitors, including Sivelestat (10 μM), Alvelestat (10 μM) and CTSGi (20 μM) for 30-45 min at 37° C. Then, cells were suspended in activity buffer (5×10^6 per ml, PBS, 4 mM EGTA, pH 7.4) with 15 μM of the PR3-specific substrate, and the kinetic of hydrolysis was followed by measuring the fluorescence at λex=320 nm and λem=420 nm. For activation of PR3 in isolated plasma membrane fraction, recombinant human CTSC (1071-CY, R&D) was activated according to the manufacturer's instruction. […] The activity of free PR3 and NE were measured in the assay buffer (50 mM Tris, 750 mM NaCl, pH 7.4) with 15 μM specific substrates by recording the fluorescence at λex=320 nm and λem=420 nm. […]

murine neutrophils = assay: Reactive oxygen species (ROS) analysis of neutrophils pre-treated with 4T07 conditioned medium; conditions: 4T07 CM with CTSC overexpressed, inhibitors 10 μM, FIGS. 8C, 8E
Experimental: To measure the ROS levels, neutrophils were cultured in cancer cell CM or non-conditioned medium, and treated with DMSO or various inhibitors, including Sivelestat (10 μM), BAY11-7082 (10 μM) and SB203580 (10 μM) for 1 h at 37° C. Cells were then harvested and resuspended in assay buffer (PBS, 4 mM EGTA, pH 7.4, containing 10 μM CM-H2DCFDA, Invitrogen), incubated for 15 min at 37° C. in dark, washed with pre-chilled PBS, followed by FACS analysis within 30 min.
The release of reactive oxygen species (ROS) by neutrophils is known to induce NET formation. […] Commum. 6, 6673 (2015).
ROS analysis of murine neutrophils pre-treated with 4T07 conditioned medium show increased ROS production results from CTSC overexpression (FIG. 8E).

4T07 cancer cells = assay: Three-dimensional spheroid culture of 4T07 cells in neutrophil medium; conditions: rmTSP-1 alone, FIG. 8H
Experimental: The procedure of 3D spheroids culture assay was previously reported (Taylor et al., “Lysyl oxidase contributes to mechanotransduction-mediated regulation of transforming growth factor-beta signaling in breast cancer cells,” Neoplasia 13:406-418 (2011)). Briefly, 4T07 cells (200 per well) were cultured in 48-well plates on 100% growth-factor-reduced Matrigel (356231, BD) cushions in spheroid medium (a 1:1 mixture of 1% FBS DMEM and medium from neutrophils cultured in the cancer cell CM, 50% Matrigel supplemented with 50 μg/ml mTSP-1 (7859-TH-050). Upon completed gelation, 250 μl of culture medium (a 1:1 mixture of 1% FBS DMEM and medium from neutrophils cultured in the cancer cell CM) with 10 μg/ml mTSP-1 (7859-TH-050) was added to each well and the culture medium was changed every three days. On day 7-10, the numbers of the spheroids were analyzed.
When both rmTSP-1 and an IL6-blocking antibody are added to CTSC overexpressing 4T07 conditioned medium, spheroid growth is inhibited (FIG. 8I, left panel). […] The inhibitory effects of α-IL6, DNase I, and a combination thereof, on spheroid formation can be seen in the images provided in FIG. 8I.

p38 = p38 phosphorylation in neutrophils pre-treated with 4T1 conditioned medium and/or rhPR3; conditions: murine neutrophils pre-treated with 4T1 CM and/or rhPR3, regardless of CTSC knockdown; FIG. 8D
Experimental: Cultured cells were collected by scraper or trypsinized and then lysed with lysis buffer (50 mM Tris-HCl, 150 mM NaCl, 1% NP-40 detergent, 0.5% sodium deoxycholate, 0.1% SDS with phosphatase and protease inhibitors), and dispersed tissue were homogenized in RIPA buffer on ice for 15 min, followed by centrifugation at 17,000 g for 15 min. The protein concentration was measured with a BCA Protein Assay Kit. Proteins of […] were loaded for membrane proteins, IL-1β processing, p65 phosphorylation and the other assays, respectively, and separated on 8-12% SDS-polyacrylamide gel. For cancer cell conditioned medium (CM) collection, cells were grown to ~80% confluence in 10 cm culture dishes. After three times washing with serum-free medium at 37° C., the cells were incubated in serum-free medium at 37° C. for 24 h. The CM were collected, centrifuged at 2,000 g for 10 min, filtrated by 0.22 μm filters, stored at −80° C. until used. The secreted proteins in CM were collected by TCA precipitation. Briefly, 25% v/v TCA was added into 1 ml CM with phosphatase and protease inhibitors, incubated overnight at 4° C., and then centrifuged at 20,000 g for 60 min, after which the supernatant was discarded and the pellet was washed twice with 1 ml pre-chilled acetone, centrifuged again at 20,000 g for 5 min at 4° C. […]

Molecule | IL-1β levels (secretion) of neutrophils (IL-1β) | ROS production / ROS levels (murine neutrophils) | also measured
Cc1c(-c2ccnn2C)cc(C(=O)NCc2ccc(S(C)(=O)=O)cn2)c(=O)n1-c1cccc(C(F)(F)F)c1 [Alvelestat] | only PR3 inhibitor Silvelestat reduces | – | upregulated PR3 activity resulting from CTSC overexpression (membrane-bound PR3): no effect
Cc1ccc(S(=O)(=O)/C=C/C#N)cc1 [BAY 11-7082] | does not reduce | no effect | –
C[S+]([O-])c1ccc(-c2nc(-c3ccncc3)c(-c3ccc(F)cc3)[nH]2)cc1 (centres unmarked) [SB203580] | – | significantly reduces | –
rmTSP-1: recombinant murine TSP-1, a metastasis-suppressive ECM protein | – | – | spheroid growth of 4T07 cancer cells (4T07 cancer cells; CTSC overexpressing 4T07 conditioned medium): does not block; spheroid growth of 4T07 cancer cells (4T07 cancer cells; neutrophil medium pre-treated with PMA): unable to block
B1 | – | – | p38 phosphorylation (p38): increased
